Experimental data from ChEMBL document CHEMBL1144677, “Novel quinazolinone derivatives as 5-HT7 receptor ligands” (Bioorg Med Chem, 2008).

Columns and labels:
D(2) dopamine receptor = D(2) dopamine receptor (Homo sapiens, UniProt P14416)
Description: Binding affinity at dopamine D2 receptor

[1] = molecular target: T1, 5-hydroxytryptamine receptor 1A (Homo sapiens, UniProt P08908)
T1 sequence (P08908 whole entry): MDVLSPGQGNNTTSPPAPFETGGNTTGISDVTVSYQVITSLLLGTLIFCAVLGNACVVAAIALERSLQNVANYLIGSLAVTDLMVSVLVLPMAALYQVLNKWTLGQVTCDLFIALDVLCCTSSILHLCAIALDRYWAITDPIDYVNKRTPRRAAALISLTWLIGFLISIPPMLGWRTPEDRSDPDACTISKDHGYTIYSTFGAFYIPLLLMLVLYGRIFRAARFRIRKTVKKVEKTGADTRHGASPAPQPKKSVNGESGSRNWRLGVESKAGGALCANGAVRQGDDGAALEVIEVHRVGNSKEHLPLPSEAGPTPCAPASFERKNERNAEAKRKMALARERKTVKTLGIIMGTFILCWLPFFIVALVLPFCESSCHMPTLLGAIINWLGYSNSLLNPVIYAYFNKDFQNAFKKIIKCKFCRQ
Description: Binding affinity at 5HT1A receptor

[2] = molecular target: 5-hydroxytryptamine receptor 2A (Homo sapiens, UniProt P28223)
Sequence of 5-hydroxytryptamine receptor 2A (P28223 whole entry): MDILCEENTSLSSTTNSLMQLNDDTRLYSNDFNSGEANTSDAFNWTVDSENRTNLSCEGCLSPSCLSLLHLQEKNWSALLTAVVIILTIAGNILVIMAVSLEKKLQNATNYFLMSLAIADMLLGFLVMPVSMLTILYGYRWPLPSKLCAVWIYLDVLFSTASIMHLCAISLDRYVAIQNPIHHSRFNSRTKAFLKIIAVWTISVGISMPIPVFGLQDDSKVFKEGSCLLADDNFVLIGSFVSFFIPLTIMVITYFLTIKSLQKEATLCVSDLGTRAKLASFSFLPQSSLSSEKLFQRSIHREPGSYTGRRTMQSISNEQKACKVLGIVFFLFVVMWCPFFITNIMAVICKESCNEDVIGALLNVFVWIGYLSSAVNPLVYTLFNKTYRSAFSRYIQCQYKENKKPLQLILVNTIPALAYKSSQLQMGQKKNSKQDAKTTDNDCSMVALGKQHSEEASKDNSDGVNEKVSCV
Description: Binding affinity at 5HT2A receptor

[3] = molecular target: T2, 5-hydroxytryptamine receptor 2C (Homo sapiens, UniProt P28335)
T2 sequence (P28335 whole entry): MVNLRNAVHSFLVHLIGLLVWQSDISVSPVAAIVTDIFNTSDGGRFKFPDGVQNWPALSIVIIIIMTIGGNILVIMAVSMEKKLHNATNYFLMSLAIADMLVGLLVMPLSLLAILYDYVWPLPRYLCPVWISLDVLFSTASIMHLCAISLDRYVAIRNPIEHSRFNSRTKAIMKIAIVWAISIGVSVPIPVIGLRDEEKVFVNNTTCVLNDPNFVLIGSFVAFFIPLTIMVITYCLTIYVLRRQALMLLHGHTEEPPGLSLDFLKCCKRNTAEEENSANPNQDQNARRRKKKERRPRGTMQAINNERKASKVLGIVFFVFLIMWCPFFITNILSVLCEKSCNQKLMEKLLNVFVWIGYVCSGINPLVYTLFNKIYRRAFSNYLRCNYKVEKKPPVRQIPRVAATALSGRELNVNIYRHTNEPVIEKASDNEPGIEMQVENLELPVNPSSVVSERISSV
Description: Binding affinity at 5HT2C receptor

Sequence of D(2) dopamine receptor (P14416 whole entry): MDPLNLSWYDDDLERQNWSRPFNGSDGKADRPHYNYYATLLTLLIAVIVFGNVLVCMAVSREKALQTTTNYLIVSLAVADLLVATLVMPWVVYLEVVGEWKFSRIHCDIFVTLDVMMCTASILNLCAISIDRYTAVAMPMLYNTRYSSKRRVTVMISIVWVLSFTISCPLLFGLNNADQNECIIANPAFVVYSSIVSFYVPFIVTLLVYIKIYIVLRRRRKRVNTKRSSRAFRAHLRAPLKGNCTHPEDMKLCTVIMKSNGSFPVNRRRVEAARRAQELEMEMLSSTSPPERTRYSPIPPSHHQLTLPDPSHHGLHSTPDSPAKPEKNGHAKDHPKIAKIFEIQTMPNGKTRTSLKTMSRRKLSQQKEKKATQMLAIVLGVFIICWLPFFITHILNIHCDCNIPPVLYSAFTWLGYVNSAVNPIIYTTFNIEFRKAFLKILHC

Cc1cccc(N2CCN(CCCC(=O)NCc3nc4ccccc4c(=O)n3-c3ccccc3)CC2)c1C gave an IC50 (D(2) dopamine receptor) of 6900 nM, an IC50 [1] of 500 nM and an IC50 [2] of 1100 nM.

In the case of COc1ccccc1N1CCN(CCCC(=O)NCc2nc3ccc(F)cc3c(=O)n2-c2ccccc2)CC1, the IC50 (D(2) dopamine receptor) is reported as 5300 nM, the IC50 [1] is reported as 960 nM and the IC50 [2] is reported as > 10000 nM. The IC50 [3] was 220 nM.

With CCOc1ccccc1N1CCN(CCCC(=O)NCc2nc3ccc(F)cc3c(=O)n2-c2ccccc2)CC1 the IC50 (D(2) dopamine receptor) was 1000 nM, the IC50 [1] was 500 nM and the IC50 [2] was > 10000 nM. It also gave an IC50 [3] of 1600 nM.

Work on O=C(CCCN1CCN(c2cccc(C(F)(F)F)c2)CC1)NCc1nc2cc(F)ccc2c(=O)n1-c1ccccc1 yielded an IC50 (D(2) dopamine receptor) of 6600 nM, an IC50 [1] of 140 nM and an IC50 [2] of 620 nM. It also gave an IC50 [3] of 1300 nM.

Cc1cccc(N2CCN(CCCC(=O)NCc3nc4ccc(F)cc4c(=O)n3-c3ccccc3)CC2)c1C showed an IC50 (D(2) dopamine receptor) of 4000 nM, an IC50 [1] of 220 nM and an IC50 [2] of 420 nM. The IC50 [3] was 80 nM.
